≈ marks a conversion by molar mass, not a printed value.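 How tested: cells in 96-well plates exposed to compound for 48 hours at five concentrations. GI50 = concentration required for 50% inhibition of growth. TGI marks complete inhibition of growth.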
How the values were obtained:
Assay in all cases: NCI-60 cell line screen, 48 h
CAKI-1 renal = test system: CAKI-1 renal
CCRF-CEM leukemia = test system: CCRF-CEM leukemia
HT29 colon = test system: HT29 colon
KM20L2 colon = test system: KM20L2 colon
RPMI-8226 leukemia = test system: RPMI-8226 leukemia
SR leukemia = test system: SR leukemia
UACC-62 melanoma = test system: UACC-62 melanoma
HS 578T breast = test system: HS 578T breast
MCF7 breast = test system: MCF7 breast
PC-3 prostate = test system: PC-3 prostate

Compound | TGI (CAKI-1 renal) | TGI (CCRF-CEM leukemia) | TGI (HT29 colon) | TGI (KM20L2 colon) [µM] | TGI (RPMI-8226 leukemia) | TGI (SR leukemia) | TGI (UACC-62 melanoma) | GI50 (KM20L2 colon) [µM] | TGI (HS 578T breast) | TGI (MCF7 breast) | TGI (PC-3 prostate) | GI50 (CAKI-1 renal) [µg/mL] | GI50 (CCRF-CEM leukemia) [µg/mL] | GI50 (HS 578T breast) [µg/mL] | GI50 (HT29 colon) [µg/mL] | GI50 (MCF7 breast) [µg/mL] | GI50 (PC-3 prostate) [µg/mL] | GI50 (RPMI-8226 leukemia) [µg/mL] | GI50 (SR leukemia) [µg/mL] | GI50 (UACC-62 melanoma) [µg/mL]
O=C1CC2CC3OC3[C@H]3c4cc5c(cc4C(=O)N1C23)OCO5 (some centres undefined) | > 100 µM | > 100 µM | > 100 µM | > 100 | > 100 µM | > 100 µM | > 100 µM |  |  |  |  |  |  |  |  |  |  |  |  | 
O=C(N/N=C/c1cc(Cl)cc(Cl)c1[O-])c1ccccc1O.O=C(N/N=C/c1cc(Cl)cc(Cl)c1[O-])c1ccccc1O.[Co+2] | 6.3 µM |  | 17.4 µM | 7.43 |  | 0.532 µM | 3.43 µM | 2.14 |  |  |  |  |  |  |  |  |  |  |  | 
CCP(=O)(CC)C(Cl)Cl | > 100 µM | > 100 µM | > 100 µM |  | > 100 µM | > 100 µM |  |  | > 100 µM | > 100 µM | > 100 µM |  |  |  |  |  |  |  |  | 
CC(=O)Nc1ccc(C(=O)NN2C(=O)C(Cl)/C2=C/c2ccco2)cc1 (centres undefined) |  | > 100 µM | > 100 µM |  | > 100 µM | > 100 µM | > 100 µM |  |  |  |  |  |  |  |  |  |  |  |  | 
CC(=O)c1c(C)nc(SSc2nc(C)c(C(C)=O)c(-c3ccc(Cl)cc3)c2C#N)c(C#N)c1-c1ccc(Cl)cc1 | > 150 µg/mL | > 150 µg/mL | > 150 µg/mL |  | > 150 µg/mL | > 150 µg/mL | > 150 µg/mL |  | 54.8 µg/mL | > 150 µg/mL | > 150 µg/mL | 62.7 (≈ 104 µM) | > 150 | 22.9 (≈ 37.9 µM) | > 150 | > 150 | > 150 | > 150 | > 150 | 29 (≈ 48 µM)
